Data published in patent US5039446A, “Liquid detergent with stabilized enzyme” (Genencor International, Inc., priority 1990, dated 1991).
Like-named read-outs stand apart in the source and are kept apart here.

Legend:
[1] = target: subtilisin; conditions: inhibitor of subtilisin, read-out: inhibition constant (KI), cited from earlier work
[2] = tested on: subtilisin; experiment: Example 1: incubation of subtilisin with or without PBA at pH 7.5 and 37 degrees, activity measured after 1:500 dilution (succinyl-L-Ala-L-Ala-L-Pro-L-Phe-p-nitroanilide hydrolysis, 410 nm); assay type: biochemical; conditions: pH 7.5, 37 degrees celsius, even in the presence of 10 mm EDTA
Description: Enzyme activity was measured after a 1:500 dilution by following the hydrolysis of the substrate succinyl-L-Ala-L-Ala-L-Pro-L-Phe-P-nitroanilide. The reaction was monitored by following the release of p-nitroaniline spectrophotometrically at 410 nm. One unit of activity is defined as the amount of enzyme that produces A410/min of 1.0 at 25'C. in 0.1M Tris pH 8.6, […] substrate.

SMILES: CCCCB(O)O [butane boronic acid]
- Ki [1]: 7200 µM

SMILES: CC(=O)N[C@@H](CC(C)C)C(=O)N[C@@H](CC(C)C)C(=O)N[C@H](C=O)CCCNC(=N)N [leupeptin]
- Ki ([1]; listed as Leupeptin): 230 µM
- Ki [1]: 160 µM

SMILES: OB(O)c1ccccc1 [phenylboronic acid]
- stabilization of subtilisin (in words) [2]: very effective agent for stabilization of subtilisin
- Ki ([1]; listed as Phenyl boronic acid): 160 µM
- Ki [1]: 230 µM
